Results reported in patent US20160378909A1, “PROCESS FOR IDENTIFYING CULTURE CONDITIONS FOR A CELL OR ORGANISM” (GLAXOSMITHKLINE BIOLOGICALS SA, priority 2013, published 2016).
Where a name gives a salt, the structure may show the parent alone. Read-outs that look alike come from different tables or passages of the source.

Tested on: Bordetella pertussis
Experiment: microbe, parasite or virus in culture
Format: cell-based
Conditions: for activity at 2000 µM / activity at 20000 µM / activity at 250 µM / activity at 2500 µM / activity at 2.8 µg/mL / activity at 28 µg/mL / activity at 1330 µM / activity at 1 µg/mL / activity at 10 µg/mL / activity at 0.2 µg/mL / activity at 2 µg/mL / activity at 0.12 µg/mL / activity at 1.2 µg/mL / activity at 6000 µg/mL / activity at 0.1 µg/mL: Bordetella pertussis
Procedure: Cells were harvested by centrifugation, washed twice with NaCl 0.9% (w/v), and resuspended in fresh medium (de novo minimal CDM; see composition in Table 1) at a theoretical OD650 nm of 0.5, as calculated from the OD650 nm of the culture before harvest. 20 μl of this cell suspension were used to inoculate each well of a 96-well microtiter plate filled with 180 μl of de novo minimal CDM. Only the inner wells of the plate were used for cultures, in order to minimize evaporation, and two controls were included, in which the supplement solution was replaced with water.
The plate was then incubated for 7 days at 35° C. in a Biotek Synergy H1 reader with constant shaking, and growth was automatically monitored every 10 minutes as OD650 nm.
The relative growth yield and growth rate for each supplement was then averaged over the three independent repeats, and the standard deviation was calculated.

[1] = 10 mg/L in medium, first generation, relative to water controls
[2] = 168 h, read-out: Relative yield Average, 2 mM in medium, max OD650 nm relative to water controls
[3] = read-out: Relative growth rate Average, 2 mM in medium, first generation, relative to water controls
[4] = read-out: Relative growth rate Average, 20 mM in medium, first generation, relative to water controls
[5] = 168 h, read-out: Relative yield Average, 1 mg/L in medium, max OD650 nm relative to water controls
[6] = read-out: Relative growth rate Average, 1 mg/L in medium, first generation, relative to water controls

Compound: O.O.[Na+].[Na+].[O]=[Mo](=[O])([O-])[O-] [Na2MoO4•2H2O]
- Relative growth rate Average (0.94 mg/L in medium, first generation, relative to water controls): 86.76%
- Relative yield Average (0.94 mg/L in medium, max OD650 nm relative to water controls): 101.96%
- Relative growth rate Average (9.4 mg/L in medium, first generation, relative to water controls): 91.79%
- Relative yield Average (9.4 mg/L in medium, max OD650 nm relative to water controls): 105.65%

Compound: [Cl-].[Cl-].[Zn+2] [ZnCl2]
- Relative growth rate Average [1]: 103.27%

Compound: O.O.O.O.O.O.[Cl-].[Cl-].[Mg+2] [MgCl2•6H2O]
- Relative growth rate Average (1 mM in medium, first generation, relative to water controls): 99.38%
- Relative yield Average (1 mM in medium, max OD650 nm relative to water controls): 102.26%
- Relative growth rate Average (10 mM in medium, first generation, relative to water controls): 106.39%
- Relative yield Average (10 mM in medium, max OD650 nm relative to water controls): 222.99%

Compound: OB(O)O [Supplement H3BO3, H3BO3]
- Relative growth rate Average (2.36 mg/L in medium, first generation, relative to water controls): 93.25%
- Relative yield Average (2.36 mg/L in medium, max OD650 nm relative to water controls): 96.86%

Compound: N=C(N)NCCC[C@H](N)C(=O)O [L-Arginine]
- activity at 2000 µM [2]: > 105%
- activity at 2000 µM [3]: > 105%
- activity at 20000 µM [4]: > 105%
- Effect on growth rate in comparison to a minimally identified medium (no concentration stated): positive effect

Compound: N[C@@H](CS)C(=O)O [L-Cysteine]
- activity at 250 µM (168 h, read-out: Relative yield Average, 0.25 mM in medium, max OD650 nm relative to water controls): 158%
- activity at 2000 µM [2]: > 105%
- activity at 2500 µM (168 h, read-out: Relative yield Average, 2.5 mM in medium, max OD650 nm relative to water controls): 212%
- activity at 20000 µM (168 h, read-out: Relative yield Average, 20 mM in medium, max OD650 nm relative to water controls): > 105%
- activity at 250 µM (read-out: Relative growth rate Average, 0.25 mM in medium, first generation, relative to water controls): 155%
- activity at 2000 µM [3]: > 105%
- activity at 2500 µM (read-out: Relative growth rate Average, 2.5 mM in medium, first generation, relative to water controls): 146%
- activity at 20000 µM [4]: > 105%

Compound: C[C@H](N)C(=O)O [L-Alanine]
- activity at 2000 µM [2]: 95 to 105%
- activity at 2000 µM [3]: > 105%

Compound: O.O.[Ca+2].[Cl-].[Cl-] [CaCl2•2H2O]
- Relative growth rate Average (0.3 mM in medium, first generation, relative to water controls): 107.49%
- Relative yield Average (0.3 mM in medium, max OD650 nm relative to water controls): 104.03%
- Relative growth rate Average (3 mM in medium, first generation, relative to water controls): 92.03%
- Relative yield Average (3 mM in medium, max OD650 nm relative to water controls): 107.34%

Compound: CC(O)CC(=O)[O-].[Na+] (racemic) [Sodium DL-beta-hydroxybutyrate]
- Relative growth rate Average (2 mM in medium, first generation, relative to water controls): 100.28%
- Relative yield Average (2 mM in medium, max OD650 nm relative to water controls): 96.73%
- Relative growth rate Average (20 mM in medium, first generation, relative to water controls): 94.37%
- Relative yield Average (20 mM in medium, max OD650 nm relative to water controls): 145.46%

Compound: [I-].[K+] [Potassium iodide]
- Relative growth rate Average (0.47 mg/L in medium, first generation, relative to water controls): 94.69%
- Relative yield Average (0.47 mg/L in medium, max OD650 nm relative to water controls): 101.89%
- Relative growth rate Average (4.7 mg/L in medium, first generation, relative to water controls): 99.91%
- Relative yield Average (4.7 mg/L in medium, max OD650 nm relative to water controls): 104.26%

Compound: O.O.O.O.O.O.O.O=S(=O)([O-])[O-].[Zn+2] [ZnSO4•7H2O]
- Relative growth rate Average (1.89 mg/L in medium, first generation, relative to water controls): 91.58%
- Relative yield Average (1.89 mg/L in medium, max OD650 nm relative to water controls): 191.76%
- Relative growth rate Average (18.9 mg/L in medium, first generation, relative to water controls): 99.13%
- Relative yield Average (18.9 mg/L in medium, max OD650 nm relative to water controls): 163.55%

Compound: O[C@H]1[C@H](O)[C@@H](O)[C@H](O)[C@@H](O)[C@H]1O [Inositol]
- activity at 2.8 µg/mL (168 h, read-out: Relative yield Average, 2.8 mg/L in medium, max OD650 nm relative to water controls): 95 to 105%
- activity at 28 µg/mL (168 h, read-out: Relative yield Average, 28 mg/L in medium, max OD650 nm relative to water controls): 95 to 105%
- activity at 2.8 µg/mL (read-out: Relative growth rate Average, 2.8 mg/L in medium, first generation, relative to water controls): 95 to 105%
- activity at 28 µg/mL (read-out: Relative growth rate Average, 28 mg/L in medium, first generation, relative to water controls): 95 to 105%

Compound: N[C@@H](Cc1ccccc1)C(=O)O [L-Phenylalanine]
- activity at 1330 µM (168 h, read-out: Relative yield Average, 1.33 mM in medium, max OD650 nm relative to water controls): < 95%
- activity at 1330 µM (read-out: Relative growth rate Average, 1.33 mM in medium, first generation, relative to water controls): < 95%

Compound: Cc1ncc(C[n+]2csc(CCO)c2C)c(N)n1 [Thiamine HCl]
- activity at 1 µg/mL [5]: 95 to 105%
- activity at 10 µg/mL (168 h, read-out: Relative yield Average, 10 mg/L in medium, max OD650 nm relative to water controls): > 105%
- activity at 1 µg/mL [6]: 95 to 105%
- activity at 10 µg/mL (read-out: Relative growth rate Average, 10 mg/L in medium, first generation, relative to water controls): > 105%

Compound: Cc1ncc(CO)c(CO)c1O [Pyridoxine]
- activity at 0.2 µg/mL (168 h, read-out: Relative yield Average, 0.2 mg/L in medium, max OD650 nm relative to water controls): 95 to 105%
- activity at 2 µg/mL (168 h, read-out: Relative yield Average, 2 mg/L in medium, max OD650 nm relative to water controls): 95 to 105%
- activity at 0.2 µg/mL (read-out: Relative growth rate Average, 0.2 mg/L in medium, first generation, relative to water controls): 95 to 105%
- activity at 2 µg/mL (read-out: Relative growth rate Average, 2 mg/L in medium, first generation, relative to water controls): 95 to 105%

Compound: CC(=O)C(=O)O [Sodium pyruvate]
- activity at 2000 µM [2]: < 95%
- activity at 2000 µM [3]: < 95%

Compound: NCC(=O)O [Glycine]
- activity at 2000 µM [2]: 95 to 105%
- activity at 2000 µM [3]: > 105%
- activity at 20000 µM [4]: > 105%

Compound: Nc1nc(=O)c2nc(CNc3ccc(C(=O)N[C@@H](CCC(=O)O)C(=O)O)cc3)cnc2[nH]1 [Folate]
- activity at 0.12 µg/mL (168 h, read-out: Relative yield Average, 0.12 mg/L in medium, max OD650 nm relative to water controls): > 105%
- activity at 1.2 µg/mL (168 h, read-out: Relative yield Average, 1.2 mg/L in medium, max OD650 nm relative to water controls): 95 to 105%
- activity at 0.12 µg/mL (read-out: Relative growth rate Average, 0.12 mg/L in medium, first generation, relative to water controls): 95 to 105%
- activity at 1.2 µg/mL (read-out: Relative growth rate Average, 1.2 mg/L in medium, first generation, relative to water controls): 95 to 105%

Compound: OC[C@H]1O[C@@](CO)(O[C@H]2O[C@H](CO)[C@@H](O)[C@H](O)[C@H]2O)[C@@H](O)[C@@H]1O [Sucrose]
- activity at 6000 µg/mL (168 h, read-out: Relative yield Average, 6 g/L in medium, max OD650 nm relative to water controls): > 105%
- activity at 6000 µg/mL (read-out: Relative growth rate Average, 6 g/L in medium, first generation, relative to water controls): 95 to 105%

Compound: Nc1nc2nc[nH]c2c(=O)[nH]1 [Guanine]
- activity at 0.1 µg/mL (168 h, read-out: Relative yield Average, 0.1 mg/L in medium, max OD650 nm relative to water controls): 95 to 105%
- activity at 1 µg/mL [5]: 95 to 105%
- activity at 0.1 µg/mL (read-out: Relative growth rate Average, 0.1 mg/L in medium, first generation, relative to water controls): 95 to 105%
- activity at 1 µg/mL [6]: 95 to 105%

Compound: Calcium pantothenate
- Relative growth rate Average (1 mg/L in medium, first generation, relative to water controls): 102.18%
- Relative yield Average (1 mg/L in medium, max OD650 nm relative to water controls): 106.59%
- Relative growth rate Average [1]: 102.47%
- Relative yield Average (10 mg/L in medium, max OD650 nm relative to water controls): 98.99%
